Results as given in patent publication US10323019B2, “Pyrazolylaminobenzimidazole derivatives as JAK inhibitors” (Eli Lilly and Company, priority 2016, dated 2019).
Where two headings read alike, the source gives them in different places.

Legend:
[1] = biological target: JAK2 (Rattus norvegicus (Rat), UniProt Q62689); experiment: Rat PK/PD assay: rat whole blood ex vivo JAK2 activity (pSTAT5); type: in vivo; conditions: 30 mpk oral
Protocol: (§1) Male Wistar rats, 265-285 grams (Charles River) were used for oral gavage dosing. Dose the animals (Oral gavage) at 1.82 mL/kg (0.5 mL per 275 grams). Formulate the compounds in 1% HEC vehicle containing 0.25% Tween 80 and 0.05% antifoam with 1.1 molar equivalent of methanesulfonic acid to form an in situ salt. Formulate compounds once per week, and store at 4° C. At various time points, obtain rat whole blood via tail vain bleeding in Multivette 600 μl EDTA blood collection tubes (cat#151671100PK100, Sarstedt Inc) and use for ex vivo JAK1 and JAK2 assay. Aliquot 100 ul of blood from each rat into a 96-well round bottom plate. Stimulate whole blood by recombinant IL-6 ([…], and recombinant mouse GM-CSF (cat#415-ML, lot#, R&D) for 12 min at rt. After cytokine stimulation, add whole blood into Lyse/fix (cat#558049, lot#, BD) in minitube rack; mix well 5×. Incubate 10 min at rt. Spin minitube rack at 600 g for 4 min. Aspirate with 12-channel manifold. Transfer contents of minitube rack to 96 well round-bottom plates. Spin down the cells at 3000 rpm for 1 min and discard the supernatant. Mix the cells in the well with 100 ul ice-cold MeOH and incubated on ice for 30 min. Add 150 ul PBS+2% FCS into each well and spin down at 3000 rpm, 2 min. Wash cells with 2× of 250 ul PBS+2% FCS. For cell surface and intracellular staining, mix all antibodies and add into each well and incubate 1 hr at rt in dark. The antibodies used for staining are as following: pSTAT3, Alexa Fluor 647 (cat#4324s, lot, Cell Signaling); pSTAT5, Alexa Fluor 488 (cat#3939s, lot#, Cell Signaling), anti-rat CD4, V450 (cat#561579, lot#. BD); anti-rat CD11b, Percp eFluor710 (cat#12-0110-82, lot#, eBioscience) After staining cells with Abs, wash the plates twice with PBS+2% FCS and finally re-suspend in the same 150 ul of solution. Assess cell viability by Viability Dye 780 (cat#65-0865-14, lot#, eBioscience). Perform the cytometry assay using FORTESSA.

[2] = biological target: JAK2 (Homo sapiens (Human), UniProt O60674); experiment: Human whole blood assay: pSTAT5 (JAK2) in monocytes, GM-CSF stimulated; type: cell-based; conditions: pSTAT5 in CD4Low CD33Hi monocytes
Sequence of JAK2 (Homo sapiens (Human), UniProt O60674) (O60674 whole entry): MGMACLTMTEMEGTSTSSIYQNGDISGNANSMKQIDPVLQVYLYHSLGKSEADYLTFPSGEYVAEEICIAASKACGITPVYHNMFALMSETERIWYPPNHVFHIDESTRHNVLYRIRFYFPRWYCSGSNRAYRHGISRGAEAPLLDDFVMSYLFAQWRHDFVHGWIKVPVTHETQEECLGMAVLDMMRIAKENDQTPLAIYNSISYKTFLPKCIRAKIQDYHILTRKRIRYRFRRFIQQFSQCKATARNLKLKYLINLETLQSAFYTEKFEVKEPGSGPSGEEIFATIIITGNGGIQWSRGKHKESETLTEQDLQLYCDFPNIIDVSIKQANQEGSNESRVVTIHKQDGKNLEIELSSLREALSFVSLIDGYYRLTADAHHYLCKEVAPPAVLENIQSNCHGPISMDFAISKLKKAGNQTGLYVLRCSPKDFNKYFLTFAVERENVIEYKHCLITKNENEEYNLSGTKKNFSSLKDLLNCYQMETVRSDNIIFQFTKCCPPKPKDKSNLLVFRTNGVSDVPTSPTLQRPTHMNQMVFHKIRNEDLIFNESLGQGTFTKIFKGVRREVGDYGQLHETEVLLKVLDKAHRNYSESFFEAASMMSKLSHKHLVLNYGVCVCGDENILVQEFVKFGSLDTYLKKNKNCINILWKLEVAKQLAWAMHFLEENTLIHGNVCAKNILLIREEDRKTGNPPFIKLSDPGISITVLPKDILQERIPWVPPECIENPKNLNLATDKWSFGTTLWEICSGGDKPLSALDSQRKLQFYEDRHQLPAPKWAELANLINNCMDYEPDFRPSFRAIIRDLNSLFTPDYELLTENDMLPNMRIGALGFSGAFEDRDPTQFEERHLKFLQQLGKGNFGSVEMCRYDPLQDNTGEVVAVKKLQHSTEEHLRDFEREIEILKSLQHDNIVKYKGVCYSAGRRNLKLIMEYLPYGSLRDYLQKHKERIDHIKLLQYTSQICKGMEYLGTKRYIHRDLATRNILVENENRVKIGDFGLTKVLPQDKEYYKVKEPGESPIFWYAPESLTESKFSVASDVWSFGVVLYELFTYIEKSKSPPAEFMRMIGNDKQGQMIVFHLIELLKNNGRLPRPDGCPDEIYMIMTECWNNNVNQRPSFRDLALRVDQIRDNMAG
Source text: Human Whole Blood Assays: Determination of pSTAT3 (JAK1) and pSTAT5 (JAK2) in Lymphocytes and Monocytes
Human whole blood (HWB) assays were developed and validated to determine the JAK1 and JAK2 selectivity of test compounds.
Dilute the test compounds, 10 points, (1:3) in DMSO 100% and a step down in PBS+0.1% BSA. Use Tofacitinib as a reference compound in each plate, as well as a maximum signal (stimulated wells) and a minimum signal (no stimulated wells) in order to normalize data. Obtain a pool of HWB from 4 different healthy donors. Plate the blood in a 96 well plate using a Tecan Evo 96w and incubate with test compounds for 1 h at RT. After this time of incubation, stimulate HWB with both IL6 (206-IL, R&D System) and GM-CSF (PHC2015, Life Technologies) for 15 more minutes. Add a viability dye (65-0865, eBiosicience) (1:1000) using a Tecan Evo 96w (5×mix).
The final concentrations in the assay are the following: 100 (μM for compounds, 50 μM for Tofacitinib, 0.1 μg/mL IL6, 0.038 μg/mL GM-CSF and 1% DMSO. Lyse and fix HWB using a Lyse/fix buffer (558049, Becton Dickinson) by adding 900 μL of lysis buffer using Tecan Evo 96w (mix 10× high speed). Incubate HWB in bath at 37° C. for 10 minutes. Centrifuge HWB at 500 G, 8 min and discard supernatant. Add cold MeOH using a Tecan Exo 96w in order to permeabilize cells. Incubate blood cells on ice during 30 min. After this, wash cells 2× using Staining buffer (554656, Becton Dickinson), spin at 3000 rpm, 2 min. discard supernatant, and add the following antibodies: Anti-Human CD4 PE, 1:100 (12-0048, eBioscience), Anti-Human CD33 eFluor® 450, 1:50 (48-0337, eBioscience), Phospho-STAT5 (Tyr694) (C71E5) Rabbit mAb, 1:100 (Alexa Fluor® 488 Conjugate) (3939, Cell Signaling) and Phospho-STAT3 (Tyr705) (D3A7) XP™ Rabbit mAb 1:200, (Alexa Fluor® 647 Conjugate) (4324, Cell Signaling). Incubate the antibodies for 1 h in dark at RT, then wash cells 2× and read on Cytometer Macsquant (Miltenyi Biotec). Gate the data on CD4+ (lymphocytes) and CD4Low CD33Hi (monocytes), to measure the fluorescence intensity from cells expressing pSTAT3 and pSTAT5, respectively. Analyze the data using FlowJo v 10 and then normalize the median of fluorescence versus maximum and minimum signal to determine the IC50s. Use Graph Pad Prism 5™ to represent the dose response curves.

[3] = biological target: JAK1 (Homo sapiens (Human), UniProt P23458); experiment: JAK LanthaScreen Kinase Assay (TR-FRET), JAK1 in vitro enzyme assay; type: biochemical; conditions: 20.0 μM ATP
Sequence of JAK1 (Homo sapiens (Human), UniProt P23458) (P23458 whole entry): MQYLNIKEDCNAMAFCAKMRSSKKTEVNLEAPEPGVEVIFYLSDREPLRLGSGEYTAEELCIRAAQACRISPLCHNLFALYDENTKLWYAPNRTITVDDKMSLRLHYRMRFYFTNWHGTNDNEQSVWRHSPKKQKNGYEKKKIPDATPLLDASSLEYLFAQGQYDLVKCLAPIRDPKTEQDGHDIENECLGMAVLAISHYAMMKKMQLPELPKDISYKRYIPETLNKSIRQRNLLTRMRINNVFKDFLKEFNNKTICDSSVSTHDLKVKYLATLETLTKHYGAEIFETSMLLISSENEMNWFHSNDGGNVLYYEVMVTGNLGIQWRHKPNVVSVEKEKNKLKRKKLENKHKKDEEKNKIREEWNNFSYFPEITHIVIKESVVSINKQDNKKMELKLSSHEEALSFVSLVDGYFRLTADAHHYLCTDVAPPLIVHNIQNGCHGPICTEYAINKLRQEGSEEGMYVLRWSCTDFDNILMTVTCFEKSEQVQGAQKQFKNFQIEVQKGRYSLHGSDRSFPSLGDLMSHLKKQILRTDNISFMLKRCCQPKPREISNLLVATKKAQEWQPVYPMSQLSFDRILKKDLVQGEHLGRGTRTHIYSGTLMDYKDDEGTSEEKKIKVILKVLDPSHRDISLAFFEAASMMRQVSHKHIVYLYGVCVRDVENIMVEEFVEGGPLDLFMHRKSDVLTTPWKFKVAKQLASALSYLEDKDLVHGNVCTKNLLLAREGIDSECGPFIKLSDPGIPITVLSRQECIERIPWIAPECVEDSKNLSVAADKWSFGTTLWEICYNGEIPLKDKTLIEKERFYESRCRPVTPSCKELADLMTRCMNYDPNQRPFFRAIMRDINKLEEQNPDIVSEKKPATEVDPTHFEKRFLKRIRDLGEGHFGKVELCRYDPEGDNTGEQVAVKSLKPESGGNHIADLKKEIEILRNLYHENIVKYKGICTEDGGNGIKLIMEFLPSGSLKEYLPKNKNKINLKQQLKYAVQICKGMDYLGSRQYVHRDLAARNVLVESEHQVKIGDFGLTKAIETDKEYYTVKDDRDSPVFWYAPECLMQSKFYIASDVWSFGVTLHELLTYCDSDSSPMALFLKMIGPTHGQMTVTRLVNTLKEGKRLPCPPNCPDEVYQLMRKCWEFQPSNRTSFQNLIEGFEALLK
Protocol: The JAK LanthaScreen™ Kinase Assay (Invitrogen) is used to determine the ability of test compounds to inhibit JAK1, JAK2, and JAK3 kinase activity. These are TR-FRET assay formats that use long-lifetime terbium labeled antibody as the donor species and GFP-STAT1 as the acceptor species. Use the TR-FRET ratio to monitor JAK kinase activity where an increase in phosphorylation of the GFP-STAT1 results in an increase in the TR-FRET ratio. Perform the kinase reaction using a 12.5 μl reaction volume in shallow black 384-well Proxiplate®. Add reagents to obtain final reaction conditions of […], 1.76 mM Triton X-100, ATP (20.0 μM for JAK1 and JAK3 or 5 μM for JAK2) enzyme assays, 10.0 mM MgCl2, 1 mM EGTA and 0.01% Brij-35, […] GFP-STAT1, 14 nM JAK1 enzyme for JAK1, 1.0 nM for JAK2 or 2.5 nM for JAK3 enzyme assays, and 4% DMSO and serial dilutions of test compound (diluted 1:3 from 20,000 to 1 nM). Following ATP/GFP-STAT1 addition, centrifuge the assay plates for 1 minute at 1000 revolutions per minute (RPM). Allow the plates to incubate at RT for 60 minutes and then add 12.5 μl of a stopping buffer containing 20 mM EDTA, 2 nM Terbium-anti-phosphorylated Signal Transducers and Activators of Transcription [phosphorylation Tyrosine 701 amino acid] […] Use ACTIVITYBASE® 4.0 to fit the percent inhibition and ten-point compound concentration data to a four-parameter logistic equation.

[4] = biological target: JAK1 (Rattus norvegicus, UniProt G3V9W2); experiment: Rat PK/PD assay: rat whole blood ex vivo JAK1 activity (pSTAT3); type: in vivo; conditions: 30 mpk oral
Sequence of JAK1 (Rattus norvegicus, UniProt G3V9W2) (G3V9W2 1-1153): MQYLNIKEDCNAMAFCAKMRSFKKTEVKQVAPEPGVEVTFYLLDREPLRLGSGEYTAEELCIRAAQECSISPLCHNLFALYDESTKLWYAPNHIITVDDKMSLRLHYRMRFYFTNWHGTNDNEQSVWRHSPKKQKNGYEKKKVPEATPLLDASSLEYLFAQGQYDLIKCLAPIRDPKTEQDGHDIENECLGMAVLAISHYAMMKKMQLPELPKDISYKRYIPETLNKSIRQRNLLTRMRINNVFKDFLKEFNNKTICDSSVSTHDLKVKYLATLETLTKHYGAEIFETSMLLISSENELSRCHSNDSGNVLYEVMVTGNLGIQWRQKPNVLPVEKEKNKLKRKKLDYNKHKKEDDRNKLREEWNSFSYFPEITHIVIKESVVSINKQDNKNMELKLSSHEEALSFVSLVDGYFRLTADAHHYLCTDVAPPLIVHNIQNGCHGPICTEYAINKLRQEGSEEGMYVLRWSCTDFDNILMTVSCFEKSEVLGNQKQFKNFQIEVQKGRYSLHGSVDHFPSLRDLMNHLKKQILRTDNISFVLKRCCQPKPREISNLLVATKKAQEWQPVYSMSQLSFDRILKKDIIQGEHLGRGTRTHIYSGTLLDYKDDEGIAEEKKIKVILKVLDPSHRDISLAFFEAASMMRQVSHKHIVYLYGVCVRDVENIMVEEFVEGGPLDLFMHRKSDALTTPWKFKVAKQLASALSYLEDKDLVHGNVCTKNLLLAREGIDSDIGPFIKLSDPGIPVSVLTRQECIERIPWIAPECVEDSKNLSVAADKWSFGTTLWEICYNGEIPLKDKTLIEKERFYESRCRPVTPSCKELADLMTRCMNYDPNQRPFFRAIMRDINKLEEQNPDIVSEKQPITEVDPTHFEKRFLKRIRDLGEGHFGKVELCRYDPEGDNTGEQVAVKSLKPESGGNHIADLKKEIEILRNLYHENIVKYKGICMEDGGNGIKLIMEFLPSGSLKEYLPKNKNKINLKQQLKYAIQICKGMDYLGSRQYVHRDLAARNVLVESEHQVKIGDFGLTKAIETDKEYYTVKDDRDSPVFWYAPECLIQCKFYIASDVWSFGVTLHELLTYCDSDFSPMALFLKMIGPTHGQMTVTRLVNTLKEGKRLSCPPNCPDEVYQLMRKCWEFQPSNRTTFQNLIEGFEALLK
Protocol: as §1

Sequence of JAK2 (Rattus norvegicus (Rat), UniProt Q62689) (Q62689 whole entry): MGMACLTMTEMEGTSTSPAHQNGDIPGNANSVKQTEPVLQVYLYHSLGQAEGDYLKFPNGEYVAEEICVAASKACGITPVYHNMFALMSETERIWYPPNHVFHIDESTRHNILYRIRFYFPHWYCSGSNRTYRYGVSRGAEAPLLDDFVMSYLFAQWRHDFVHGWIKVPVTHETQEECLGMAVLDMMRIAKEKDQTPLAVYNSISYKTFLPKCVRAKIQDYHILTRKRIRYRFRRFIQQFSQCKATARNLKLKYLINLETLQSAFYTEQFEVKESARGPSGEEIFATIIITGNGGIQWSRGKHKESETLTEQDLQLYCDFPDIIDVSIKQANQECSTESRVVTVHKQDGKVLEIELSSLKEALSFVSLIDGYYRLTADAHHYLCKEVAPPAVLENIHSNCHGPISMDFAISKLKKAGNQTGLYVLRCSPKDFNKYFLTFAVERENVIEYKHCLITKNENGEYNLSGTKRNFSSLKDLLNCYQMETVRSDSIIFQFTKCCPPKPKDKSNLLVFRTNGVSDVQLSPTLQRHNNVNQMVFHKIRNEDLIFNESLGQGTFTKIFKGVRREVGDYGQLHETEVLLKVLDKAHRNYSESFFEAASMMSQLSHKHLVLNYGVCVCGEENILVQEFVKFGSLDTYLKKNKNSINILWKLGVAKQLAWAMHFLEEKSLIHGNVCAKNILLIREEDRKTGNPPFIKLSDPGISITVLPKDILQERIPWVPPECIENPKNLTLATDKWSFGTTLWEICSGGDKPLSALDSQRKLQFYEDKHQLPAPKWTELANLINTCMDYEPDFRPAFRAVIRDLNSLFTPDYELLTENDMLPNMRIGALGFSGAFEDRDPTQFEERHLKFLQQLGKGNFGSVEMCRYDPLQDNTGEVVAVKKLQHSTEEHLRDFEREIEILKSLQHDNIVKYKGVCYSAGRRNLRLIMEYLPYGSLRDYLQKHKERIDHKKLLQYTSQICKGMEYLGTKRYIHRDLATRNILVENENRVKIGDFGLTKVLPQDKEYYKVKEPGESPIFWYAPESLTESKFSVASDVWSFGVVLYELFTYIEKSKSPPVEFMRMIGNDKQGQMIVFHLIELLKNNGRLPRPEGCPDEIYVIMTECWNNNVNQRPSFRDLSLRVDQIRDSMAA

## COc1cc(Nc2cc(O[C@H]3CC[C@@H](NC[C@@H](O)C(F)(F)F)CC3)cc3c2ncn3C)nn1C [Example 6, (2R)-1,1,1-Trifluoro-3-{[cis-4-({4-[(5-methoxy-1-methyl-1H-pyrazol-3-yl)amino]-1-methyl-1H-benzimidazol-6-yl}oxy)cyclohexyl]amino}propan-2-ol]
[1]; 2 hr post dosing, read-out: JAK2 inhibition 2 hr post dosing
  inhibition at 30 mg/kg: 17.7%
[1]; 7 hr post dosing, read-out: JAK2 inhibition 7 hr post dosing
  inhibition at 30 mg/kg: 17.4%
[2]
  IC50: 20.3 ± 6.3 µM
[3]
  IC50: 0.00525 ± 0.00111 µM
[4]; 2 hr post dosing, read-out: JAK1 inhibition 2 hr post dosing
  inhibition at 30 mg/kg: 83.5%
[4]; 7 hr post dosing, read-out: JAK1 inhibition 7 hr post dosing
  inhibition at 30 mg/kg: 75.4%
